Measurements from PubChem BioAssay (NCI).
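Values below derive from 48-hour exposures of cells grown in 96-well plates, with endpoints linearly interpolated between the two concentrations bracketing the appropriate inhibition level. Definition used: TGI = concentration required for complete inhibition of growth.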

Key:
Assay in all cases: inhibition of tumour cell growth, NCI panel, 48 h
HL-60(TB) leukemia = tested on: HL-60(TB) leukemia
HOP-92 NSCLC = tested on: HOP-92 NSCLC
SNB-75 CNS = tested on: SNB-75 CNS
RPMI-8226 leukemia = tested on: RPMI-8226 leukemia
K-562 leukemia = tested on: K-562 leukemia
HCC-2998 colon = tested on: HCC-2998 colon
NCI-H522 lung = tested on: NCI-H522 lung
SK-MEL-2 melanoma = tested on: SK-MEL-2 melanoma
U251 CNS = tested on: U251 CNS
SR leukemia = tested on: SR leukemia
LOX IMVI melanoma = tested on: LOX IMVI melanoma
CCRF-CEM leukemia = tested on: CCRF-CEM leukemia
OVCAR-3 ovarian = tested on: OVCAR-3 ovarian
MDA-MB-435 = tested on: MDA-MB-435
COLO 205 colon = tested on: COLO 205 colon
UACC-257 melanoma = tested on: UACC-257 melanoma
SK-MEL-28 melanoma = tested on: SK-MEL-28 melanoma
SF-295 CNS = tested on: SF-295 CNS
EKVX NSCLC = tested on: EKVX NSCLC
MDA-MB-231 breast = tested on: MDA-MB-231 breast
IGROV1 ovarian = tested on: IGROV1 ovarian
A498 renal = tested on: A498 renal
PC-3 prostate = tested on: PC-3 prostate
NCI-H23 lung = tested on: NCI-H23 lung
A549 NSCLC = tested on: A549 NSCLC
ACHN renal = tested on: ACHN renal
M14 melanoma = tested on: M14 melanoma
NCI-H460 lung = tested on: NCI-H460 lung
UO-31 renal = tested on: UO-31 renal
HS 578T breast = tested on: HS 578T breast
UACC-62 melanoma = tested on: UACC-62 melanoma
SK-OV-3 ovarian = tested on: SK-OV-3 ovarian
DU-145 prostate = tested on: DU-145 prostate
SNB-19 CNS = tested on: SNB-19 CNS
CAKI-1 renal = tested on: CAKI-1 renal
MALME-3M melanoma = tested on: MALME-3M melanoma
786-0 renal = tested on: 786-0 renal
BT-549 breast = tested on: BT-549 breast
NCI/ADR-RES ovarian = tested on: NCI/ADR-RES ovarian
HT29 colon = tested on: HT29 colon
TK-10 renal = tested on: TK-10 renal
T-47D breast = tested on: T-47D breast
SW-620 colon = tested on: SW-620 colon
KM12 colon = tested on: KM12 colon
SF-268 CNS = tested on: SF-268 CNS
SK-MEL-5 melanoma = tested on: SK-MEL-5 melanoma
HCT-15 colon = tested on: HCT-15 colon
RXF 393 renal = tested on: RXF 393 renal
OVCAR-8 ovarian = tested on: OVCAR-8 ovarian
NCI-H226 lung = tested on: NCI-H226 lung
HCT-116 colon = tested on: HCT-116 colon
OVCAR-5 ovarian = tested on: OVCAR-5 ovarian
OVCAR-4 ovarian = tested on: OVCAR-4 ovarian
MOLT-4 leukemia = tested on: MOLT-4 leukemia
HOP-62 NSCLC = tested on: HOP-62 NSCLC
SF-539 CNS = tested on: SF-539 CNS
MCF7 breast = tested on: MCF7 breast
SN12C renal = tested on: SN12C renal

C=CCON(C(=O)OC(C)(C)C)C(C)(C)C
TGI (HL-60(TB) leukemia): > 100 µM
TGI (HOP-92 NSCLC): > 100 µM
TGI (SNB-75 CNS): > 100 µM
TGI (RPMI-8226 leukemia): > 100 µM
TGI (K-562 leukemia): > 100 µM
TGI (HCC-2998 colon): > 100 µM
TGI (NCI-H522 lung): > 100 µM
TGI (SK-MEL-2 melanoma): > 100 µM
TGI (U251 CNS): > 100 µM
TGI (SR leukemia): > 100 µM
TGI (LOX IMVI melanoma): > 100 µM
TGI (CCRF-CEM leukemia): > 100 µM
TGI (OVCAR-3 ovarian): > 100 µM
TGI (MDA-MB-435): > 100 µM
TGI (COLO 205 colon): > 100 µM
TGI (UACC-257 melanoma): > 100 µM
TGI (SK-MEL-28 melanoma): > 100 µM
TGI (SF-295 CNS): > 100 µM
TGI (EKVX NSCLC): > 100 µM
TGI (MDA-MB-231 breast): > 100 µM
TGI (IGROV1 ovarian): > 100 µM
TGI (A498 renal): > 100 µM
TGI (PC-3 prostate): > 100 µM
TGI (NCI-H23 lung): > 100 µM
TGI (A549 NSCLC): > 100 µM
TGI (ACHN renal): > 100 µM
TGI (M14 melanoma): > 100 µM
TGI (NCI-H460 lung): > 100 µM
TGI (UO-31 renal): > 100 µM
TGI (HS 578T breast): > 100 µM
TGI (UACC-62 melanoma): > 100 µM
TGI (SK-OV-3 ovarian): > 100 µM
TGI (DU-145 prostate): > 100 µM
TGI (SNB-19 CNS): > 100 µM
TGI (CAKI-1 renal): > 100 µM
TGI (MALME-3M melanoma): > 100 µM
TGI (786-0 renal): > 100 µM
TGI (BT-549 breast): > 100 µM
TGI (NCI/ADR-RES ovarian): > 100 µM
TGI (HT29 colon): > 100 µM
TGI (TK-10 renal): > 100 µM
TGI (T-47D breast): > 100 µM
TGI (SW-620 colon): > 100 µM
TGI (KM12 colon): > 100 µM
TGI (SF-268 CNS): > 100 µM
TGI (SK-MEL-5 melanoma): > 100 µM
TGI (HCT-15 colon): > 100 µM
TGI (RXF 393 renal): > 100 µM
TGI (OVCAR-8 ovarian): > 100 µM
TGI (NCI-H226 lung): > 100 µM
TGI (HCT-116 colon): > 100 µM
TGI (OVCAR-5 ovarian): > 100 µM
TGI (OVCAR-4 ovarian): > 100 µM
TGI (MOLT-4 leukemia): > 100 µM
TGI (HOP-62 NSCLC): > 100 µM

NS(=O)(=O)c1nnc(NC(=S)NC(=O)Nc2ccc(Cl)c(Cl)c2)s1
TGI (HL-60(TB) leukemia): 87.6 µM
TGI (HOP-92 NSCLC): 36.2 µM
TGI (SNB-75 CNS): 50 µM
TGI (RPMI-8226 leukemia): > 100 µM
TGI (K-562 leukemia): > 100 µM
TGI (SF-539 CNS): 21.8 µM
TGI (NCI-H522 lung): 31 µM
TGI (MCF7 breast): > 100 µM
TGI (SK-MEL-2 melanoma): 88 µM
TGI (U251 CNS): > 100 µM
TGI (LOX IMVI melanoma): 34 µM
TGI (CCRF-CEM leukemia): > 100 µM
TGI (OVCAR-3 ovarian): 62 µM
TGI (MDA-MB-435): 41.9 µM
TGI (COLO 205 colon): 39.1 µM
TGI (UACC-257 melanoma): 65.1 µM
TGI (SK-MEL-28 melanoma): > 100 µM
TGI (SF-295 CNS): 62.1 µM
TGI (EKVX NSCLC): 80.1 µM
TGI (MDA-MB-231 breast): > 100 µM
TGI (IGROV1 ovarian): 46.7 µM
TGI (PC-3 prostate): > 100 µM
TGI (NCI-H23 lung): 40.4 µM
TGI (A549 NSCLC): > 100 µM
TGI (SN12C renal): 68.2 µM
TGI (M14 melanoma): 36.1 µM
TGI (UO-31 renal): 48 µM
TGI (HS 578T breast): 67.2 µM
TGI (UACC-62 melanoma): 33.1 µM
TGI (SK-OV-3 ovarian): 62.1 µM
TGI (DU-145 prostate): 53.9 µM
TGI (SNB-19 CNS): 94.8 µM
TGI (CAKI-1 renal): 63.6 µM
TGI (MALME-3M melanoma): 59 µM
TGI (786-0 renal): > 100 µM
TGI (BT-549 breast): 50.2 µM
TGI (NCI/ADR-RES ovarian): 62.6 µM
TGI (HT29 colon): 71.9 µM
TGI (TK-10 renal): > 100 µM
TGI (SW-620 colon): 65.5 µM
TGI (KM12 colon): 39.9 µM
TGI (SF-268 CNS): > 100 µM
TGI (SK-MEL-5 melanoma): 49 µM
TGI (HCT-15 colon): 48.9 µM
TGI (RXF 393 renal): 42.3 µM
TGI (OVCAR-8 ovarian): 69.7 µM
TGI (NCI-H226 lung): > 100 µM
TGI (HCT-116 colon): 44.3 µM
TGI (OVCAR-5 ovarian): 67.7 µM
TGI (OVCAR-4 ovarian): 55.2 µM
TGI (MOLT-4 leukemia): > 100 µM
TGI (HOP-62 NSCLC): 63.7 µM
